Data published in patent US20250313879A1, “Fluorescent Probe for Detecting Peptide Bond Hydrolase” (The University of Tokyo, priority 2022, published 2025).
In brackets after ≈: the same amount, converted by molar mass.

What was measured:
[1] = tested on: peptidase activity in human plasma sample; experiment: Enzyme activity assay in microdevice with human plasma, peptidase probes; type: biochemical; conditions: 50 μM probe, human plasma 5,000 fold dilution, 25° C. for 2 hours
Description: (§1) • 1. GP-sHMRG as a fluorescent probe for detecting peptidase activity was diluted with an assay buffer to 100 μM. The composition of the assay buffer is 100 mM HEPES-NaOH (pH 7.4), 1 mM MgCl2, 1 mM CaCl2, 1 mM DTT, 3 mM Triton X-100. • 2. Next, a human plasma sample was diluted by 2,500 times with the above assay buffer, and mixed in an equal amount with the diluted solution of the probe. At this time, the final concentrations of both are 50 μM for GP-sHMRG and 5,000 fold dilution for the human plasma sample. • 3. The mixed solution of both was then added to a microdevice, followed by the addition of sealing oil to enclose the solution in each well. • 4. The microdevice in which the solution was enclosed was incubated at 25° C. for 2 hours, and then the fluorescence intensity of each well was measured with a fluorescence microscope.
as §1, with “1. Ac-Ala-sHMRG” for “1. GP-sHMRG”, “by 250” for “by 2,500”, “for Ac-Ala-sHMRG” for “for GP-sHMRG”, “and 500” for “and 5,000”, “at 37°” for “at 25°”, “for 4” for “for 2”
• 1. Ac-GP-sSiR as a fluorescent probe for detecting peptidase activity was diluted with an assay buffer to 100 μM. The composition of the assay buffer is 100 mM HEPES-NaOH (pH 7.4), 1 mM MgCl2, 1 mM CaCl2, 1 mM DTT, 3 mM Triton X-100. • 2. […] The microdevice in which the solution was enclosed was incubated at 37° C. for 2 hours, and then the fluorescence intensity of each well was measured with a fluorescence microscope.

DPP4 = molecular target: T1, DPP4 (Homo sapiens, UniProt P27487); experiment: Diagnostic experiment of pancreatic cancer utilizing single-molecule enzyme activity of DPP4; type: biochemical
T1 construct: from tissue; host or cells: human plasma of pancreatic cancer patients and healthy subjects
T1 sequence (P27487 whole entry): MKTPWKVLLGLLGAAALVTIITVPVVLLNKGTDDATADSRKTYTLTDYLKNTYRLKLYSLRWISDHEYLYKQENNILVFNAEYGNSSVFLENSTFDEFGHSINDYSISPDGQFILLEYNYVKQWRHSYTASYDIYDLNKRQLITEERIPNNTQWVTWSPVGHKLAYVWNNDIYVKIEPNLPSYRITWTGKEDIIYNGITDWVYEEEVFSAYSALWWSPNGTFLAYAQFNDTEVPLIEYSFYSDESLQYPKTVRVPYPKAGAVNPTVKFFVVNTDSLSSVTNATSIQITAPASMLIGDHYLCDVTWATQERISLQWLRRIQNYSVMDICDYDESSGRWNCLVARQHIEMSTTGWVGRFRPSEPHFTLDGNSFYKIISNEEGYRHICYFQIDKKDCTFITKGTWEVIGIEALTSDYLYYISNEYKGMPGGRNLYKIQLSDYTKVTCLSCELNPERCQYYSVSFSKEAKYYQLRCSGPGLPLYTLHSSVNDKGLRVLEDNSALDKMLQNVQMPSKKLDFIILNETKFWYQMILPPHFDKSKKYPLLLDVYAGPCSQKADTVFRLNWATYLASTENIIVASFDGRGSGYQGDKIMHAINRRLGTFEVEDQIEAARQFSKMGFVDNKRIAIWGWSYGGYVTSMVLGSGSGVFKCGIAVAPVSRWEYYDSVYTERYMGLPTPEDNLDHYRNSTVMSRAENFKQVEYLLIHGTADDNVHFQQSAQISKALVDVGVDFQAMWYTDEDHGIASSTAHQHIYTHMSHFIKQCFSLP
Description: In order to detect the single-molecule enzyme activity of DPP4, an experiment to verify the availability of the probe GP-sHMRG to which Gly-Pro is bonded as a reaction point to detect a pancreatic cancer biomarker was performed in the following procedures. • 1. GP-sHMRG as a DPP4 detecting probe was diluted with an assay buffer to 100 μM. The composition of the assay buffer is 100 mM HEPES-NaOH (pH 7.4), 1 mM MgCl2, 1 mM CaCl2), 1 mM DTT, 3 mM Triton X-100. • 2. Next, human plasma samples collected from 30 patients with pancreatic cancer and 30 healthy subjects were each diluted by 2,500 times with the above assay buffer, and mixed in an equal amount with the diluted solution of GP-sHMRG. At this time, the final concentrations of both are 50 μM for the GP-sHMRG probe and 5,000 fold dilution for the human plasma sample. • 3. The mixed solution of both was then added to a microdevice, followed by the addition of sealing oil to enclose the solution in each well. • 4. The microdevice in which the solution was enclosed was incubated at 25° C. for 2 hours, and then the fluorescence intensity of each well was measured with a fluorescence microscope. […] The histogram created based on the detected fluorescence intensity of each well is approximated to a curve including two normal distributions.
Specifically, in this example, an ROC curve for determination based on the enzyme activity of DPP4 determined based on the proportion of the high activity group is created, and when a threshold is subtracted at the time when the proportion of the high activity group is 55%, the sensitivity is 37% and the specificity is 97% (the right view of FIG. 4). It is possible to determine pancreatic cancer by such an ROC curve.

[2] = Solubility in sealing oil (hexadecane); type: physicochemical; conditions: oil or lipid, kinetic from dmso stock, room temperature (25° C.), three tests, average value±standard deviation
Description: That is, 1 μL of a 10 mM DMSO solution of the test compound was added with respect to 100 μL of hexadecane as sealing oil, and the mixture was sonicated and suspended at room temperature (25° C.) for 1 minute. Thereafter, the solution was centrifuged for 30 seconds, 50 μL of the supernatant was collected and mixed with 100 μL of methanol, and a compound dissolved in hexadecane was extracted. Thereafter, the methanol solution from which the compound was extracted was analyzed by ultra performance liquid chromatography (UPLC) (eluent: A/B=95/5>5/95, A: 0.1% formic acid-containing 100% H2O, B: 0.1% formic acid-containing 100% CH3CN), and the concentration of the compound in the methanol solution was calculated from the peak area. In the calculation of the solution concentration using the UPLC peak area, solutions having a plurality of concentrations were prepared and measured for each compound, then a calibration curve was prepared (FIG. 5), and the calculation was performed according to the calibration curve.

dipeptidyl peptidase [3] = experiment: Signal/noise ratio of enzymolysate in cuvette; type: biochemical; conditions: 10 μM probe, 17 ng/mL dipeptidyl peptidase, 25° C. 9 hours, @527 nm
Description: (§2) For two types of compounds Glu-sSiR (PB206/Example 12) and GP-sHMRG (PB109/Example 7), the signal/noise ratios of the enzymolysates before and after the enzyme reaction in the cuvette and the microdevice were each measured as follows. In the following experiments, the composition of the assay buffer is 100 mM HEPES-NaOH (pH 7.4), 1 mM MgCl2, 1 mM CaCl2), […].
GP-sHMRG was diluted with an assay buffer so as to be 10 μM, then added to a quartz cuvette, and the fluorescence spectrum before the enzyme reaction was measured with a fluorometer (excitation wavelength: 500 nm). Thereafter, dipeptidyl peptidase was added so that the concentration in the solution was 17 ng/mL, the solution was incubated at 25° C. for 9 hours, and then the fluorescence spectrum was measured. The fluorescence spectra before and after the enzyme reaction were compared, the ratio of the values at a wavelength at which the fluorescence intensity was maximized was calculated as the signal/noise ratio of the enzymolysate, the ratio was 481 times (@527 nm) (see FIG. 7B).

dipeptidyl peptidase [4] = experiment: Signal/noise ratio of enzymolysate in microdevice; type: biochemical; conditions: 30 μM probe, 0.2 ng/mL dipeptidyl peptidase, 25° C. 2 hours
Description: as §2
For GP-sHMRG, three kinds of solutions of (iv) only an assay buffer, (v) 30 μM of GP-sHMRG, and (vi) 30 μM of GP-sHMRG and 0.2 ng/mL of dipeptidyl peptidase were prepared, and each solution was added to a microdevice, followed by the addition of sealing oil to enclose the solution in each well. The microdevice in which the solution was enclosed was incubated at 25° C. for 2 hours, and then the fluorescence intensity of each well was measured with a fluorescence microscope. When a difference between the average values of the fluorescence intensities of the respective wells in (v) and (iv) was defined as noise, a difference between the average value of the fluorescence intensities of the wells in which the enzyme was encapsulated in (vi) and the average value of the fluorescence intensities of the respective wells in (iv) was defined as a signal, and a ratio of these values was calculated as the signal/noise ratio of the enzymolysate, the ratio was 287 times (see FIG. 8, panel B). […]

[5] = threshold: proportion of the high activity group is 55%, pancreatic cancer vs healthy

NCC(=O)N1CCCC1C(=O)Nc1ccc2c(c1)Oc1cc(N)ccc1C21OCc2cc(S(=O)(=O)O)ccc21 (stereo not shown) [GP-sHMRG]
fluorescence intensity of wells in which the reacting enzyme was enclosed [1]: increase in fluorescence intensity was observed | ratio of the high activity group to the total of high and low activity groups (DPP4; patients with pancreatic cancer compared with healthy subjects, 50 μM probe, plasma 5,000 fold dilution, 25° C. 2 hours): significant increase | sensitivity (ROC curve, DPP4 activity) (DPP4; [5]): 37% | specificity (ROC curve, DPP4 activity) (DPP4; [5]): 97% | solubility at 1 min [2]: 0.27 ± 0.026 µM (≈ 0.149 µg/mL) | signal/noise ratio of the enzymolysate (dipeptidyl peptidase [3]): 481 times | signal/noise ratio of the enzymolysate (dipeptidyl peptidase [4]): 287 times
